For 88 compounds, activation and AC40 results are on record in PubChem BioAssay AID743394 (Broad Institute, 2014).

Structures are written as SMILES. Activity calls are given as the source filed them.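 The calls were made as follows: active = 40% activation versus positive control reached by fitted dose-response curve at or below highest valid tested dose; inconclusive = poor fit quality, or flat fit with activation between 30% and 70%; inactive = the rest.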

Tested on in the first assay: not listed separately
The assay can be described thus: Xi-linked GFP reactivating small molecules – imaging, 68-5-11 mouse fibroblasts, cherry-pick, dose response (AID 743394).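 Also: sensitizer 5-aza-dC present in the wells at 0.5 mM final.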 Particulars: 68-5-11 mouse fibroblast XiGFP reporter, % GFP-positive imaging, 3 d; at 19.5 µM (top of the series); cells co-treated with 5-aza-dC sensitizer; scaled: neutral wells 0, ellipticine wells 100.
As to `Cc1ccc(-c2ccc3c(c2)O[C@@H](CN(C)Cc2ccncc2)[C@@H](C)CN([C@@H](C)CO)S3(=O)=O)cc1`, the activation is 0% (inactive).
In the case of `COc1ccccc1/C=C/C(=O)OCC(=O)NC(=O)NC1CCCC1`, the activation is -0.012% (inactive).
`Cc1ccc(N2C(=O)C3C4C=CC(CNC(=S)N5CCN(c6ccccc6)CC5)(O4)C3C2=O)cc1` (stereo not drawn): the activation was -0.008% (inactive).
Regarding `O=C(O)CSc1ncccn1`, the activation is -0.015% (inactive).
On the same count and under the same terms, to `CCN(CC)c1ccc(/C=C(/C#N)C(=O)NCc2ccccc2)o1` belongs 12.4% (inactive); to `COc1cc(CNc2nc3ccccc3n2C)cc(OC)c1OC`, 0.013% (inactive).
Still for that read-out and setting: in the case of `COc1ccc(NC(=O)COc2ccc(C)c(C)c2)cc1S(=O)(=O)N1CCCCC1` it was 0.164% (inactive).
The same measure, in the same setting: to `O=C(NNC(=O)c1cc2ccccc2o1)c1ccc(Cl)cc1` belongs 0.006% (inactive).
For the compound `C[C@H]1CN([C@@H](C)CO)S(=O)(=O)c2ccc(Br)cc2O[C@H]1CN(C)C(=O)c1cccnc1`, the activation was -0.033% (inactive).
Same read-out and setting: to `COC1=CC(=O)c2nc(Cl)ccc2C1=O` belongs 5.06% (inactive); to `Cc1c(Nc2cc(Cl)c3nonc3c2[N+](=O)[O-])c(=O)n(-c2ccccc2)n1C`, -0.121% (inactive).

Another assay deals with 68-5-11 mouse fibroblast XiGFP reporter, % GFP-positive imaging, 3 d. Described as above. The conditions noted are these: cells co-treated with 5-aza-dC sensitizer.
Take `O=C(NC1CCCC1)c1cccc2c1C(=O)c1ccc(/C=C/c3ccccc3)cc1S2(=O)=O`: the AC40 is 5.54 µM.
Still for that read-out and setting: in the case of `Cc1cc2oc3ccc(NCCCn4ccnc4)cc3c(=O)c2cc1C` it was 11.3 µM; in that of `CCCCN(C)C1=CC2=CC(=C(C#N)C#N)CCC2CC1` (stereo not drawn), 2.86 µM; in that of `COc1cc2c3nnc(-c4ccccc4)c-3cn(Cc3ccccc3F)c2cc1OC`, 1.27 µM.
On the same count and under the same terms, in the case of `CCN1/C(=C/c2ccc3cc(C)ccc3[n+]2CC)Sc2cc(C)c(C)cc21` it was 1.29 µM; in that of `Cc1ccc(S(=O)(=O)N2CC3(O)CN(C(=O)OC(C)C)N(C(=O)OC(C)C)CC3(OC(=O)NCc3ccccc3)C2)cc1` (stereo not drawn), 13.8 µM.
Still for that read-out and setting: in the case of `N#C/C(=C/c1ccc(N2CCCCC2)o1)C(=O)NCCc1c[nH]c2ccccc12` it was 4.77 µM.
For `CCOC(=O)Cn1c(=O)c(-c2cc(Br)ccc2N)nc2ccccc21`, the AC40 is 12.5 µM.
Same read-out and setting: in the case of `Cc1cccc2cc3c(N)c(C(=O)N4CCCc5ccccc54)sc3nc12` it was 9.89 µM; in that of `COc1ccc(-[n+]2c(C)cc(/C=C3\Sc4ccccc4N3C)cc2C)cc1`, 0.22 µM.
`Cc1nonc1NC(=O)CSc1nc2c(C)cccc2cc1C#N`: the AC40 is 6.5 µM.
The same measure, in the same setting: to `COc1ccc(Cn2cc3c(-c4ccc(F)cc4)nnc-3c3cc(OC)c(OC)cc32)cc1` belongs 4.05 µM.
With `CN(C)S(=O)(=O)c1ccc2c(c1)/C(=C/c1cc3c([nH]1)CCCC3)C(=O)N2`, the AC40 is 1.58 µM.
Still for that read-out and setting: in the case of `O=[N+]([O-])c1c(Nc2ccc(O)cc2)cc(Cl)c2nonc12` it was 8.92 µM.
Same read-out and setting: to `N#Cc1c(-c2ccccc2F)cc(C2CC2)nc1SCC(=O)c1cccs1` belongs 7.48 µM; to `Cc1cccc2cc3c(N)c(C(=O)N4CCc5ccccc54)sc3nc12`, 14.1 µM.
On the same count and under the same terms, to `N=c1ccn2c(n1)OC1C(O)C(CO)OC12` (stereo not drawn) belongs 19.1 µM; to `CC[n+]1c(/C=C/C=C/N(C(C)=O)c2ccccc2)sc2cc(OC)ccc21`, 1.16 µM.
As to `CCN1/C(=C/c2ccc3cc(C)ccc3[n+]2CC)Sc2cc(C)ccc21`, the AC40 was 2.16 µM.
Same read-out and setting: in the case of `CC(NC(=O)/C(C#N)=C/c1ccc([N+](=O)[O-])o1)c1ccccc1` (stereo not drawn) it was 6.75 µM; in that of `CN(C)CCCN1C(=O)c2cccc3c([N+](=O)[O-])ccc(c23)C1=O`, 6.06 µM; in that of `Cn1cc(C2=C(c3ccc(Cl)cc3Cl)C(=O)NC2=O)c2ccccc21`, 6.16 µM.
For `CC(C)(C)NC(=S)N/N=C\c1ccc(-c2ccc([N+](=O)[O-])cc2)o1`, the AC40 is 5.94 µM.
On to `Cc1ccccc1OCC(O)CNC1CCC(NCC(O)COc2ccccc2C)CC1` (stereo not drawn), for which the AC40 is > 19.5 µM (inactive).
As for `O=c1oc2cc(O)ccc2cc1-c1nc2c(s1)CCc1ccccc1-2`, the AC40 is 2.79 µM.
On to `COc1ccccc1N1N=C(c2ccc([N+](=O)[O-])cc2)CC1c1ccccc1` (stereo not drawn), for which the AC40 was 18.4 µM.
Same read-out and setting: in the case of `CCN(CC)c1ccc(/C=C/c2cc(-c3ccccc3)c3ccccc3n2)cc1` it was 1.68 µM.
As for `CCN(CC)c1ccc2cc(-c3nc(-c4ccc(OC)cc4)cs3)c(=O)oc2c1`, the AC40 was 0.057 µM.
Same read-out and setting: to `CCN1/C(=C/c2ccc3cc(C)ccc3[n+]2CC)Sc2ccccc21` belongs 0.228 µM.
The same measure, in the same setting: to `CCN1/C(=C\c2ccc3ccccc3[n+]2CC)Sc2cc(C)ccc21` belongs 0.668 µM; to `Cc1ccc2[nH]c(C)c(/C=C/c3cc[n+](C)cc3)c2c1`, 8.58 µM; to `CCN1/C(=C/c2ccc3cc(C)cc(C)c3[n+]2CC)Sc2cc(C)ccc21`, 0.507 µM.
On to `O=C1c2cccc3c([N+](=O)[O-])ccc(c23)C(=O)N1Cc1cccnc1`, for which the AC40 was 10.1 µM.
Still for that read-out and setting: in the case of `Cc1[nH]c2ccccc2c1/C=N/Nc1ccc([N+](=O)[O-])cc1` it was 9.23 µM.
Same read-out and setting: in the case of `COC1C(CO)OC(n2c3c(Cl)cccc3c3c4c(c5c6cccc(Cl)c6[nH]c5c32)C(=O)NC4=O)C(O)C1O` (stereo not drawn) it was 13.8 µM.
Same read-out and setting: in the case of `CCCN1C(=O)S/C(=C\c2ccc(N3CCOCC3)o2)C1=O` it was > 19.5 µM (inactive).
As for `CN(C)c1ccc(/C=C(/C#N)C(=O)NCc2ccccc2)o1`, the AC40 was 10.3 µM.
Same read-out and setting: in the case of `COc1cc2c3nnc(-c4ccc(F)cc4)c-3cn(Cc3ccccc3F)c2cc1OC` it was 1.57 µM.
Still for that read-out and setting: to `O=[N+]([O-])c1ccc(N/N=C/c2ccc[nH]2)cc1` belongs > 19.5 µM (inactive).
Turning to `COc1cc(N2CCCC2)c(OC)cc1/C=C1/NC(=S)NC1=O`, the AC40 is > 19.5 µM (inactive).
Same read-out and setting: to `COc1ccc(NC(=O)Nc2ccc3c(c2)CC(=O)N([C@H](C)CO)C[C@H](C)[C@@H](CN(C)S(=O)(=O)c2ccc(F)cc2)O3)cc1` belongs 18.6 µM.
Still for that read-out and setting: to `Cc1ccc(C(=O)N/C(=C/c2ccc(-c3ccc([N+](=O)[O-])cc3)o2)C(=O)NCCCN(C)C)cc1` belongs 4.28 µM; to `O=S(=O)(Nc1cc(Sc2cccc3cccnc23)c(O)c2ccccc12)c1ccccc1`, > 19.5 µM (inactive); to `Cc1cccc(NC(=O)/C=C/c2ccc([N+](=O)[O-])s2)c1`, 1.58 µM.
`Cc1ccc(NC(=O)/C=C/c2ccc([N+](=O)[O-])s2)cc1`: the AC40 was 3.11 µM.
Take `COc1ccc2nc(C)cc(NCc3ccc(F)cc3)c2c1`: the AC40 is 4.9 µM.
Still for that read-out and setting: to `CCOCCCNC(=O)/C(C#N)=C/c1ccc([N+](=O)[O-])o1` belongs > 19.5 µM (inactive); to `Cc1ccc(C(=O)c2oc3ccccc3c2NC(=O)c2cc(-c3ccccc3O)n[nH]2)cc1`, 12.8 µM.
Same read-out and setting: in the case of `COc1cc(NS(=O)(=O)c2ccc3ccccc3c2)c2ncccc2c1` it was > 19.5 µM (inactive).
In the case of `Nc1c(C(=O)c2ccccc2)sc2nsc(SCCN3CCCC3)c12`, the AC40 was 8.3 µM.
Regarding `NC(=O)c1c(NC(=O)c2ccccc2)sc2c1CCN(Cc1ccccc1)C2`, the AC40 was 15.8 µM.
On the same count and under the same terms, in the case of `COc1ccc(NC(=O)CCc2ccccc2)cc1S(=O)(=O)N1CCCCC1` it was 17 µM; in that of `Nc1c(C(=O)Nc2ccc(S(=O)(=O)N3CCCC3)cc2)sc2nc3cc4c(cc3cc12)CCC4`, 4.29 µM.
On to `CN1/C(=C/C=C(C#N)C#N)C(C)(C)c2ccccc21`, for which the AC40 is 11.3 µM.
On the same count and under the same terms, to `COc1ccc(/C=C/C(=O)c2ccc([N+](=O)[O-])o2)cc1OC` belongs 14.3 µM.
Same read-out and setting: in the case of `COc1cc2c3nnc(-c4ccc(F)cc4)c-3cn(Cc3ccccc3)c2cc1OC` it was 1.23 µM; in that of `CCOC(=O)C1=C(O)/C(=C/c2cc(OC)c(O)c(OC)c2)SC1=Nc1ccc(OC)cc1`, 18.3 µM; in that of `O=S(=O)(Nc1cc2nc3ccccc3nc2n1Cc1ccccc1)c1ccc(Cl)cc1`, > 19.5 µM (inactive).
On to `Oc1ccc(/C=N/Nc2ccnc3cc(Cl)ccc23)c(O)c1`, for which the AC40 was > 19.5 µM (inactive).
On the same count and under the same terms, in the case of `Cc1cccc(-c2cccc3[nH]c4c(c23)CCN2C(=O)[C@H]3[C@H](C)ON(C)[C@H]3C[C@@H]42)c1` it was 10.8 µM; in that of `CC(=NNc1nc2ccccc2o1)c1cc2ccccc2cn1`, 2.86 µM; in that of `O=[N+]([O-])c1ccc(N2N=C(c3ccccc3)CC2c2ccccc2O)cc1` (stereo not drawn), 12.4 µM.
Same read-out and setting: in the case of `Nc1[nH]c2cc([N+](=O)[O-])ccc2c1-c1ccccn1` it was 4.61 µM.
On the same count and under the same terms, in the case of `CCN1/C(=C/C=C/c2oc3ccc(-c4ccccc4)cc3[n+]2CC)Oc2ccc(-c3ccccc3)cc21` it was 0.00228 µM.
As to `N#C/C(=C/c1ccc(-c2ccccc2)o1)c1nc(-c2cccs2)cs1`, the AC40 was 5.05 µM.
For `C[C@H]1CCCCO[C@H](CN(C)S(=O)(=O)c2ccc(Cl)cc2)[C@@H](C)CN([C@@H](C)CO)C(=O)c2cc(NC(=O)Nc3ccccc3)ccc2O1`, the AC40 is > 19.5 µM (inactive).
Same read-out and setting: to `N#C/C(=C/c1ccc(N2CCCCC2)o1)C(=O)Nc1ccc2ccccc2c1` belongs 0.297 µM; to `CN(C)CCN(Cc1ccc(Cl)cc1)c1ccccn1`, > 2.1 µM (inactive); to `COc1ccc(NC(=O)C(C)N2C(=O)c3ccccc3C2=O)c(OC)c1` (stereo not drawn), 9.06 µM.
The same measure, in the same setting: in the case of `O=[N+]([O-])c1ccc(N/N=C/c2sc(N3CCOCC3)nc2-c2ccccc2)c(S(=O)(=O)Nc2ccc(Cl)cc2)c1` it was 1.72 µM; in that of `Cc1ccc2c(c1)c(/C=C/c1cc[n+](C)cc1)c(C)n2C`, 2.65 µM.
Still for that read-out and setting: in the case of `CCCN1CCN(C(=O)C2CCN(c3nnc(C)c4c(C)n(-c5ccc(C)cc5)nc34)CC2)CC1` it was 8.7 µM.
In the case of `F[B-](F)(F)c1cnc2ccccc2c1`, the AC40 was > 6.8 µM (inactive).
Still for that read-out and setting: in the case of `CC(=O)Oc1cccc(N2C(=O)c3cccc4c([N+](=O)[O-])ccc(c34)C2=O)c1` it was 5.28 µM.
Same read-out and setting: to `Cn1cc(/C=C/c2cc[n+](C)cc2)c2cc(Cl)ccc21` belongs > 19.5 µM (inactive); to `O=[N+]([O-])c1ccc(/C=C/C2=NN(c3ccccc3)C(c3ccco3)C2)cc1` (stereo not drawn), 1.81 µM; to `O=CNc1ccc2c3c(cccc13)-c1ccccc1-2`, 5.85 µM.
